Data from the supplement of paper PMC10702517.
± gives the standard deviation.

Key:
[1] = chemical recovery from spiked human plasma; higher = better extraction; details: pooled human plasma
[2] = chemical recovery by SPE of plasma after PDMS sampling; higher = better extraction; details: pooled human plasma, extraction method: HLB SPE of plasma after PES
[3] = chemical recovery into PDMS from spiked human plasma; higher = better extraction; details: pooled human plasma, extraction method: PES with PDMS
[4] = extraction method: PES+SPE (3 d PDMS equilibration then HLB SPE)
[5] = extraction method: SPE only (HLB 96-well)
[6] = extraction method: SPE only (HLB 96-well), PES comparison experiment
[7] = extraction method: solvent precipitation (ACN + hexane)
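Wherever chemical recovery by SPE of plasma after PDMS sampling is given: over 400 spiked chemicals quantified by LC-HRMS or GC-HRMS via internal standard calibration, recovery relative to spike mix added to unspiked plasma extract to correct matrix effects.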

| SMILES | chemical recovery [1, 4] [%] | chemical recovery [1, 5] [%] | chemical recovery [1, 6] [%] | chemical recovery [1, 7] [%] | chemical recovery by SPE of plasma ([2]; equilibration time (d): 1) [%] | chemical recovery by SPE of plasma ([2]; equilibration time (d): 3) [%] | chemical recovery by SPE of plasma ([2]; equilibration time (d): 6) [%] | chemical recovery into PDMS ([3]; equilibration time (d): 1) [%] | chemical recovery into PDMS ([3]; equilibration time (d): 3) [%] | chemical recovery into PDMS ([3]; equilibration time (d): 6) [%] |
| --- | --- | --- | --- | --- | --- | --- | --- | --- | --- | --- |
| CC(C)NCC(O)COc1cccc2ccccc12 (configuration not stated) [Propranolol] | 7.98 ± 1.1 | 45.4 ± 2.9 | 50 ± 7 | 71.9 ± 3.2 | 8.66 ± 0.64 | 9.06 ± 1.1 | 7.31 ± 0.57 | 0.322 ± 0.19 | 0.522 ± 0.36 | 0.438 ± 0.19 |
| CCCOC(=O)c1ccc(O)cc1 [Propylparaben] | 56.4 ± 4.7 | 43.1 ± 2.1 | 67.9 ± 7.4 | 70.6 ± 3.7 | 40.3 ± 8.2 | 43 ± 3.8 | 34 ± 0.68 | 11.6 ± 0.24 | 13.2 ± 1.9 | 14.8 ± 2 |
| Cc1c(C(C)C)c(=O)n(-c2ccccc2)n1C [Propyphenazone] | 48.4 ± 9.9 | 44.6 ± 2.6 | 47.3 ± 6.5 | 69.31 ± 0.67 | 4.36 ± 0.18 | 3.89 ± 0.79 | 2.01 ± 0.19 | 17.3 ± 1.9 | 22 ± 0.25 | 23 ± 2.1 |
| C#CC(C)(C)NC(=O)c1cc(Cl)cc(Cl)c1 [Propyzamide] | 64.9 ± 12 | 65 ± 3.2 | 48.1 ± 8.4 | 64.8 ± 3.9 | 5.12 ± 0.61 | 7.16 ± 0.99 | 4.71 ± 0.68 | 34.8 ± 1.4 | 38.5 ± 1.1 | 39.4 ± 0.71 |
| OC(Cc1ccccc1Cl)(Cn1cncn1)C1(Cl)CC1 (configuration not stated) [Prothioconazole-desthio] |  |  | 47 ± 6.8 | 89.2 ± 4 | 0.693 ± 0.059 | 0.829 ± 0.22 | 0.428 ± 0.025 | 36.2 ± 2.6 | 38.6 ± 2 | 38.5 ± 1.7 |
| c1cc2ccc3cccc4ccc(c1)c2c34 [Pyrene] |  | 19.5 ± 5.1 | 19.4 ± 2.8 |  | 4.17 ± 2.2 | 5.06 ± 1.2 | 3.59 ± 0.37 |  | 79.6 ± 17 | 77.8 ± 20 |
| c1ccc2ncccc2c1 [Quinoline] |  | 16.5 ± 4.6 |  |  | 0.053 ± 0.092 | 0.00565 ± 0.0098 | 0.0105 ± 0.018 | 8.77 ± 5.3 | 9.55 ± 7.5 | 4.43 ± 4.2 |
| Fc1ccc(Oc2ccnc3cc(Cl)cc(Cl)c23)cc1 [Quinoxyfen] |  | 57.2 ± 16 | 31.6 ± 5.7 | 96.2 ± 9.7 |  | 0.232 ± 0.06 |  | 48 ± 4.7 | 50.5 ± 5.9 | 48.7 ± 2 |
| Cc1nc2n(c(=O)c1CCN1CCC(c3noc4cc(F)ccc34)CC1)CCCC2 [Risperidone] |  |  |  | 73.2 ± 3.6 | 4.71 ± 0.66 | 3.9 ± 0.9 | 2.32 ± 0.59 | 0.00139 ± 0.0024 | 0.000765 ± 0.0018 |  |
| CN[C@H]1CC[C@@H](c2ccc(Cl)c(Cl)c2)c2ccccc21 [Sertraline] | 1.09 ± 0.4 | 71.9 ± 9.3 | 40.5 ± 8.4 | 72.8 ± 3.8 | 0.296 ± 0.11 | 0.321 ± 0.11 | 0.0944 ± 0.088 | 0.493 ± 0.065 | 0.434 ± 0.081 | 0.535 ± 0.27 |
| CCNc1nc(Cl)nc(NCC)n1 [Simazine] | 47.8 ± 5.9 | 43.4 ± 2.3 | 48.6 ± 5.5 | 60.6 ± 5.9 | 9.65 ± 1.2 | 7.56 ± 1.3 | 4.81 ± 0.55 | 30.5 ± 1.1 | 35.8 ± 1.3 | 38.6 ± 2.5 |
| CCNc1nc(NCC)nc(SC)n1 [Simetryn] |  | 41.6 ± 3.2 | 46.7 ± 4.3 | 70.9 ± 3.6 | 12.9 ± 2.2 | 5.73 ± 0.83 | 3.34 ± 0.47 | 21.2 ± 8.1 | 25.4 ± 8.6 | 28.9 ± 5.6 |
| CC[C@H]1CCC[C@H](O[C@H]2CC[C@H](N(C)C)[C@@H](C)O2)[C@@H](C)C(=O)C2=C[C@@H]3[C@@H](C=C[C@@H]4C[C@@H](O[C@@H]5O[C@@H](C)[C@H](OC)[C@@H](OC)[C@H]5OC)C[C@@H]34)[C@@H]2CC(=O)O1 [Spinosyn A] |  |  | 39.5 ± 10 | 71.7 ± 10 | 0.0715 ± 0.12 | 0.155 ± 0.14 | 0.0384 ± 0.0082 | 0.00824 ± 0.014 | 0.0193 ± 0.034 | 0.00695 ± 0.012 |
| CS(=O)(=O)c1ccc(C(=O)C2C(=O)CCCC2=O)c(Cl)c1 [Sulcotrione] | 57 ± 5.9 | 47.6 ± 3.3 | 51.3 ± 2.9 | 72.8 ± 3.6 | 53.9 ± 7 | 59.9 ± 2.5 | 54.5 ± 2 |  |  | 0.00153 ± 0.0027 |
| O=P(OC(CCl)CCl)(OC(CCl)CCl)OC(CCl)CCl [TDCPP] |  | 46.5 ± 0.97 | 50.5 ± 5.6 |  | 4.16 ± 3.7 | 4.02 ± 4.5 | 2.14 ± 3.7 | 35.2 ± 3 | 37.4 ± 4.4 | 35.8 ± 3 |
| CC(C)CC(C)(O)C#CC(C)(O)CC(C)C (configuration not stated) [TMDD] |  | 47.5 ± 6 |  | 77.6 ± 7 |  |  | 38.6 ± 6 | 47.1 ± 4.9 |  | 60.2 ± 18 |
| CCCc1nc2c(C)cc(-c3nc4ccccc4n3C)cc2n1Cc1ccc(-c2ccccc2C(=O)O)cc1 [Telmisartan] | 55.8 ± 1.8 | 50.8 ± 2.5 | 45.4 ± 5.1 |  | 43.6 ± 3.4 | 46.2 ± 1 | 43.5 ± 2.1 | 0.144 ± 0.041 | 0.817 ± 0.34 | 1.28 ± 0.6 |
| CN1C(=O)C(O)N=C(c2ccccc2)c2cc(Cl)ccc21 (configuration not stated) [Temazepam] | 62.9 ± 6.2 | 46.8 ± 2.9 | 44.5 ± 6.3 | 77.8 ± 3.1 | 30.4 ± 4.8 | 27.9 ± 3.1 | 22 ± 2.1 | 11.2 ± 0.91 | 16.5 ± 0.71 | 17.6 ± 1.9 |
| CC/C(=N\OC/C=C/Cl)C1=C(O)CC(C2CCOCC2)CC1=O (configuration not stated) [Tepraloxydim] | 45.7 ± 5 | 40.5 ± 2.5 | 51.8 ± 3 | 73.8 ± 3.1 | 47.5 ± 6.9 | 48.3 ± 2.9 | 41.9 ± 3.2 | 0.0964 ± 0.084 | 0.473 ± 0.3 | 0.369 ± 0.063 |
